Experiments:
[1] = Storage stability of I-131 MIBG: percent of iodine remaining bound to the MIBG; assay type: physicochemical; conditions: for percent of iodine remaining bound to the MIBG: 1 mCi per vial
Excerpt: The radioactive diagnostic radiopharmaceutical in this invention requires no further cold or refrigerated storage, including with respect to shipping, subsequent to stabilization. The lyophilized radiopharmaceutical composition is reconstituted “on site” for administration to patients by the addition of a suitable diluent to bring the radiopharmaceutical complex into solution at the time of administration to the patient. For administration, the I-123 labeled MIBG in the vial must be reconstituted. Because of the minute quantity of material, the vial of radionuclide complex, in the preferred mode the I-123 labeled MIBG will appear empty. The MIBG ligand is stable for several days because of the absence of water which is the primary substance from which free radicals are generated by gamma ray collisions with water molecules. The gamma rays are being emitted by the radionuclide, that is the I-123. The health care provider would add up to 2 ml. of sterile normal saline. The desired dose would be withdrawn and measured in a dose calibrator of a type manufactured by Capintec of Montville, N.J. If the glass vial is measured in the dose calibrator, the person measuring the dose must recognize that the glass vial will decrease the apparent activity. Upon calibration of the desired dose, the I-123 MIBG now re-dissolved in the solution is promptly administered to the patient. The advantages are that the flash freezing and lowering of vapor pressure result in quick formation and evaporation or sublimation (evaporation from ice to water vapour (a gas)) of water from the I-123 MIBG. The I-123 MIBG need not be shipped frozen in dry ice nor need it be shipped for overnight delivery. Shipping in dry ice over a weekend is generally not commercially practical. The I-123 MIBG can be shipped over the weekend and be used on Monday while simply maintaining it at room temperature or below. In order to establish the advantages of the novel process and resulting composition, a series of tests were run utilizing meta iodo benzyl guanidine (MIBG) in which the radionuclide I-131 was the iodine in the MIBG.
The MIBG was prepared as follows: eight vials were prepared of MIBG in solution with a radioactive concentration of MIBG of 1 mCi per vial. The MIBG in six of those vials were then stabilized and lyophilized according to the process described in this invention. One vial was frozen and maintained at a temperature of −10 degrees, and another vial was simply refrigerated at approximately 5 degrees.
Six vials were prepared according to the process in this invention in order to enable several to be reconstituted from the lyophilized state and their activity tallied.
The radioactive concentration of MIBG per vial was 1 mCi per vial.
The results showing the percent of iodine remaining bound to the MIBG are set forth in table I. One each of the vials was reconstituted after 24, 48, 72 and 168 hours respectively.

[2] = Storage stability of 1-131 Hippuran: percent remaining bound; assay type: physicochemical; conditions: 1 mCi per vial
Description: As another example, 1-131 Hippuran was prepared. The 1-131 Hippuran was prepared as follows: 9 vials were prepared of 1-131 Hippuran in solution with a radioactive concentration of MIBG of 1 mCi per vial. Each vial had 4 cc. The 1-131 in seven of those vials was then stabilized and lyophilized according to the process described in this invention. One vial was frozen and maintained at a temperature of −10 degrees, and another vial was maintained room temperature. Room temperature was selected because Hippuran is thought to be stable at room temperature even in conjunction with a radioisotope. […]

N=C(N)NCc1cccc([131I])c1 [MIBG, meta iodo benzyl guanidine]
percent of iodine remaining bound to the MIBG ([1]; Frozen −10°, 24 hours): 94%
percent of iodine remaining bound to the MIBG ([1]; Frozen −10°, 48 hours): 91%
percent of iodine remaining bound to the MIBG ([1]; Frozen −10°, 72 hours): 84%
percent of iodine remaining bound to the MIBG ([1]; Frozen −10°, 168 hours (1 wk.)): 72%
percent of iodine remaining bound to the MIBG ([1]; Lyophilized and stabilized per invention, stored at room temp., 24 hours): 97%
percent of iodine remaining bound to the MIBG ([1]; Refrigerated ~+5°, 24 hours): 92%
percent of iodine remaining bound to the MIBG ([1]; Refrigerated ~+5°, 48 hours): 85%
percent of iodine remaining bound to the MIBG ([1]; Refrigerated ~+5°, 72 hours): 77%
percent of iodine remaining bound to the MIBG ([1]; Refrigerated ~+5°, 168 hours (1 wk.)): 55%
activity on storage ([1]; not stabilized and lyophilized per this invention): deteriorated sharply

O=C([O-])CNC(=O)c1ccccc1[131I].[Na+] [Hippuran]
percent of Hippuran remaining bound to the I-123 ([2]; Frozen −10°, 0 hours): 98%
percent of Hippuran remaining bound to the I-123 ([2]; Frozen −10°, 24 hrs): 97.8%
percent of Hippuran remaining bound to the I-123 ([2]; Frozen −10°, 48 hrs): 97%
percent of Hippuran remaining bound to the I-123 ([2]; Frozen −10°, 72 hrs): 94%
percent of Hippuran remaining bound to the I-123 ([2]; Frozen −10°, 96 hrs): 92.5%
percent of Hippuran remaining bound to the I-123 ([2]; Frozen −10°, 120 hrs): 91%
percent of Hippuran remaining bound to the I-123 ([2]; Lyophilized and stabilized per invention, stored at room temp., 0 hours): 98%
percent of Hippuran remaining bound to the I-123 ([2]; Lyophilized and stabilized per invention, stored at room temp., 24 hrs): 98.4%
percent of Hippuran remaining bound to the I-123 ([2]; Lyophilized and stabilized per invention, stored at room temp., 48 hrs): 98.6%
percent of Hippuran remaining bound to the I-123 ([2]; Lyophilized and stabilized per invention, stored at room temp., 72 hrs): 98%
percent of Hippuran remaining bound to the I-123 ([2]; Lyophilized and stabilized per invention, stored at room temp., 96 hrs): 98.4%
percent of Hippuran remaining bound to the I-123 ([2]; Lyophilized and stabilized per invention, stored at room temp., 120 hrs): 98.5%
percent of Hippuran remaining bound to the I-123 ([2]; Room Temp. (solution, not lyophilized), 0 hours): 98%
percent of Hippuran remaining bound to the I-123 ([2]; Room Temp. (solution, not lyophilized), 24 hrs): 96%
percent of Hippuran remaining bound to the I-123 ([2]; Room Temp. (solution, not lyophilized), 48 hrs): 95%
percent of Hippuran remaining bound to the I-123 ([2]; Room Temp. (solution, not lyophilized), 72 hrs): 94.5%
percent of Hippuran remaining bound to the I-123 ([2]; Room Temp. (solution, not lyophilized), 96 hrs): 92%
percent of Hippuran remaining bound to the I-123 ([2]; Room Temp. (solution, not lyophilized), 120 hrs): 90%

From patent publication US20080260639A1, “PREPARATION AND METHOD UTILIZING RADIOLABELED CHLOROTOXIN” (priority 2004, published 2008)
